# Source: article PMC4559389, “Tumor Detection at 3 Tesla with an Activatable Cell Penetrating Peptide Dendrimer (ACPPD-Gd), a T1 Magnetic Resonance (MR) Molecular Imaging Agent” (PLoS ONE, 2015)
# Where “and” joins values, the source holds several entries; their conditions need not be identical. Equal entries are not always repeated. Entries after “also recorded” stand apart in the source; their conditions may differ.
# How the values were obtained:
# Format in all cases: in vivo, albino C57BL/6 mice
# [1] = Post mortem tissue Gd content by ICP-MS; details: ACPPD-Gd 24 h post, gadobutrol at equilibrium phase
# Experimental: Mice were sacrificed immediately after the 14-day MRI study and tumors, liver, kidneys, and muscle were harvested and immediately frozen at -20°C for later analysis. Tissue Gd content was measured using inductively coupled plasma-mass spectrometry (ICP-MS) on defrosted and weighted tissues. Less than 100mg samples of each tissue were placed in 900uL of nitric acid on a Gyromixer overnight at room temperature. The next day, 200μL of 30% hydrogen peroxide were added, and after 2 hours the samples were heated to 90–100°C for 2 hours. Tuning solution was then added to a 5mL total volume. Samples were then run in an Agilent Technologies 7700 Series ICP-MS to measure gadolinium content in parts-per-billion. Tissue Gd concentration in micromolar was calculated as (ppb of Gd/Gd molecular weight)*(total weight of solution measured/tissue wet weight).
# [2] = system: Py8119 mammary tumor; assay: Blinded reader tumor detection on 3T MRI (ROC/AUC, inter-observer kappa); details: for AUC (95%CI) of ROC curve for tumor presence, Reader 1 (experienced), all tumors (n = 107) / AUC (95%CI) of ROC curve for tumor presence, Reader 2 (trainee), all tumors (n = 107): 288 breasts, ACPPD-Gd 24 h post, gadobutrol 2–3 min post; for AUC (95%CI) of ROC curve for tumor presence, Reader 1 (experienced), tumors <5mm^3 (n = 58) / AUC (95%CI) of ROC curve for tumor presence, Reader 2 (trainee), tumors <5mm^3 (n = 58): obvious tumors (>5mm^3) removed
# Description: The acquired 72 studies (3 groups x 8 mice x 3 time points) with 4 pulsing sequences each were anonymized and presented at random to 2 observers blinded to contrast grouping, time since inoculation, and which 2 nipples were inoculated with tumor. Reader 1 is an MR expert with extensive experience in clinical and animal MR image interpretation (RFM) and Reader 2 is a 2nd-year radiology resident in training (ESO). Studies were reviewed independently and readers reported whether the breast tissue under each of the 4 nipples in each study was normal or contained tumor along with their confidence level as low, medium, or high. If a tumor was present they described the degree and pattern of tumor enhancement.
# Receiver operating characteristic (ROC) curves were constructed using 4 levels: normal, low, medium and high probability for tumor presence. There were 288 breasts evaluated (3 groups x 8 animals x 3 time-points x 4 breasts). […] Additional ROC curves were constructed for tumors <5mm^3 to assess the potential benefit of ACPPD-Gd in detecting small tumors. Interobserver agreement was assessed for all 288 breasts and within each of the 3 contrast groups using the kappa statistic. Area under the ROC curve (AUC) was calculated for the 3 contrast groups using the JROC web-based program.
# [3] = system: Py8119 mammary tumor; assay: T1-weighted MR tumor enhancement at 3T in mice with mammary fat pad tumors
# Description: The University of California San Diego Institutional Animal Care and Use Committee (IACUC) approved this research under protocol S04011. All steps were ensured to minimize pain and suffering of all animals during the course of this experiment. Anesthesia during tumor inoculation and MR imaging was isoflurane/O2. All animals were given free access to food and water ad libitum during the entire study. Euthanasia involved CO2 asphyxiation followed by cervical dislocation. Each of the 4 inguinal nipples of 16 albino C57BL/6 (Harlan Labs) mice were randomized such that each mouse had 2 mammary fat pads inoculated with 10^4 Py8119 mammary tumor cells and the other 2 with an equal volume of saline. […]
# All mice were imaged on days 4, 9, and 14 after inoculation under isoflurane/O2 anesthesia. […] Optimal ACPPD-Gd dose and imaging time were previously determined. […]
# Tumor signal and size were quantified at each time point using region-of-interest (ROI) analysis with OsiriX software (Pixmeo, Geneva). […] Tumors <1mm^3 were not analyzed because of unreliable ROI placement and partial volume effects. A polygonal ROI was traced around the tumor on the fat-saturated T1-weighted axial sequence at its maximal dimension and the average signal and cross-sectional area recorded. […] Tumor volume was calculated using an ellipsoid function as 4/3*(area of tumor ROI)*(1/2)*(maximal orthogonal coronal diameter). […]
smiles,measurement,setting,value
"O=C([O-])CN1CCN(CC(=O)[O-])CCN([C@H](CO)[C@H](O)CO)CCN(CC(=O)[O-])CC1.[Gd+3] (racemic) [gadobutrol, Gd-DO3A-butrol]",Gd biodistribution: organ of dominant accumulation,"[1]; ICP-MS of tumors, liver, kidneys, muscle",the majority of Gd was in the kidneys
same,Tumor to muscle Gd concentration ratio,"[1]; ICP-MS, 14 days after inoculation, mean±SD",2.7 ± 1.0
same,"AUC (95%CI) of ROC curve for tumor presence, Reader 1 (experienced), all tumors (n = 107)",[2],0.91 and 0.92
same,"AUC (95%CI) of ROC curve for tumor presence, Reader 2 (trainee), all tumors (n = 107)",[2],0.81
same,"AUC (95%CI) of ROC curve for tumor presence, Reader 1 (experienced), all tumors (n = 107)",[2]; listed as Gadobutrol,"0.92 (0.86, 0.98)"
same,"AUC (95%CI) of ROC curve for tumor presence, Reader 2 (trainee), all tumors (n = 107)",[2]; listed as Gadobutrol,"0.81 (0.73, 0.90)"
same,"AUC (95%CI) of ROC curve for tumor presence, Reader 1 (experienced), tumors <5mm^3 (n = 58)",[2],0.86
same,"AUC (95%CI) of ROC curve for tumor presence, Reader 2 (trainee), tumors <5mm^3 (n = 58)",[2],0.69
same,"AUC (95%CI) of ROC curve for tumor presence, Reader 1 (experienced), tumors <5mm^3 (n = 58)",[2]; listed as Gadobutrol,"0.86 (0.75, 0.96)"
same,"AUC (95%CI) of ROC curve for tumor presence, Reader 2 (trainee), tumors <5mm^3 (n = 58)",[2]; listed as Gadobutrol,"0.69 (0.57, 0.81)"
same,Pattern of tumor enhancement,[3]; 3T axial fat-saturated T1w images,more apparent at the tumor periphery; also recorded: enhanced predominantly the tumor rim
same,"T1w tumor enhancement, small tumors (1-5mm^3)","[3]; 3T, ACPPD-Gd 24 h after 0.036 mmol Gd/kg, gadobutrol 2–3 min after 0.1 mmol/kg, mean±SD, p = 0.03",19±18%
